Results from patent US8836218B2, “Methods of treatment using combination therapy” (Ambit Biosciences Corp., priority 2009, dated 2014).
Where two headings read alike, the source gives them in different places.

Columns and labels:
[1] = system: MV4-11 solid tumor flank model; test: In vivo study of AC220 plus Aza-C in the MV4-11 solid tumor flank model; set-up: species or system SCID mouse; settings: for flank tumor volume: AC220 0.5 mkd PO
Method: The size of the tumors averaged about 230 mm^3. […] Aza-C was delivered in a formulation of sterile saline (10 ml/kg/day, prepared in 5-day batches) at about 3 or about 1 mkd, QD, IP, and dose was adjusted for body weight. The average group starting body weight was about 20.6 g. The clinical signs and body weight were measured twice weekly. White blood cell (WBC) counts determined at the end of the Aza-C dosing period and again 7 days post drug treatment. The study was carried out in one or multiple treatment cycles with Aza-C delivered for 5 days on each 15 day cycle. […] [table]

[2] = system: MV4-11 cell lines; test: AC220 in combination with etoposide, cell viability study (CellTiter-Blue); type: cell-based; settings: Homo sapiens; MV4-11, AC220 alone
Method: (§1) In this assay, the sequence of administration of AC220 and etoposide was examined for its cytotoxic effect. For the combination schedules tested, MV4-11 cell lines were cultured in RPMI medium with 10% fetal bovine serum and penicillin/streptomycin to a density of 3e5/mL to 1e6/mL and plated at 6e5 cells per well. […] Cytotoxicity was assessed using the CellTiter-Blue™ Viability Assay (#G8081 Promega). A combination index (CI) value was generated for each combination experiment using a commercially available software program (Calcusyn; Biosoft, Manchester, United Kingdom). The interaction of the two agents was analyzed using the median effect method of Chou and Talalay (Adv. Enyme Regul. 1984; 22:27-55). The Combination index and Weighted combination index were calculated as described in Chou, Pharmacol. Rev. 58:621-681, 2006.
As described by Chou, supra, the ranges of CI indicate synergism, additive effect, and antagonism as follows:
CI<1—synergism, CI=1—additive effect, and CI>1—antagonism.

[3] = system: MV4-11 cell lines; test: AC220 in combination with daunorubicin, cell viability study (CellTiter-Blue); type: cell-based; settings: Homo sapiens; MV4-11, AC220 alone
Method: as §1, with “daunorubicin” for “etoposide”, “22:27-55).” for “22:27-55). The Combination index and Weighted combination index were calculated as described in Chou, Pharmacol. Rev. 58:621-681, 2006.”

[4] = system: MV4-11 cell lines; test: AC220 in combination with cytarabine, cell viability study (CellTiter-Blue); type: cell-based; settings: Homo sapiens; MV4-11, AC220 alone
Method: In this assay, the sequence of administration of AC220 and cytarabine was examined for its cytotoxic effect. For the combination schedules tested, MV4-11 cell lines were cultured in Iscove medium with 10% fetal bovine serum and penicillin/streptomycin to a density of 3e5/mL and plated at 6e4 cells per well. […] Cytotoxicity was assessed using the CellTiter-Blue™ Viability Assay (#G8081 Promega). A combination index (CI) value was generated for each combination experiment using a commercially available software program (Calcusyn; Biosoft, Manchester, United Kingdom). The interaction of the two agents was analyzed using the median effect method of Chou and Talalay (Adv. Enyme Regul. 1984; 22:27-55).

[5] = system: MV4-11 cell lines; test: AC220 in combination with cladribine, cell viability study (CellTiter-Blue); type: cell-based; settings: Homo sapiens; MV4-11, AC220 alone
Method: as §1, with “cladribine” for “etoposide”, “Iscove” for “RPMI”, “3e5/mL” for “3e5/mL to 1e6/mL”, “6e4” for “6e5”, “22:27-55).” for “22:27-55). The Combination index and Weighted combination index were calculated as described in Chou, Pharmacol. Rev. 58:621-681, 2006.”

[6] = system: MV4-11 solid tumor flank model; test: Efficacy study of AC220 plus cytarabine in the MV4-11 solid tumor flank model; type: in vivo, SCID mouse; settings: for sustained complete regressions: either agent alone (Groups 3 and 5): cytarabine 30 mkd IP Day 1 to 10, AC220 1 mkd PO Day 1 to 24
Method: Dosing was initiated on day 14 post-inoculation with groups of 10 animals per arm. The size of the tumors averaged about 222 mm^3. […] Cytarabine was delivered in a formulation of sterile saline (5 ml/kg/day, prepared weekly) at about 30 or about 60 mkd, QD, IP, and dose was adjusted for body weight. […] The clinical signs and body weight were measured twice weekly. White blood cell (WBC) counts determined at the end of the cytarabine dosing period and again 7 days post drug treatment. The study was carried out in one or multiple treatment cycles with cytarabine delivered for 10 days on each 24 day cycle. […] [table]

[7] = system: MV4-11 cell lines; settings: MV4-11, etoposide alone; read-out: reported EC50 value; cited from earlier work
[8] = system: MV4-11 cell lines; settings: MV4-11, cladribine alone; read-out: reported EC50 value; cited from earlier work
[9] = system: MV4-11 cell lines; settings: MV4-11, daunorubicin alone; read-out: reported EC50 value; cited from earlier work
[10] = system: MV4-11 cell lines; settings: MV4-11, cytarabine alone; read-out: reported EC50 value; cited from earlier work

Nc1ncn([C@@H]2O[C@H](CO)[C@@H](O)[C@H]2O)c(=O)n1 [Aza-C, azacitidine]
reduction in tumor volume ([1]; Aza-C at the 3 mkg dose, IP, Day 1 to 5): ~50%

CC(C)(C)c1cc(NC(=O)Nc2ccc(-c3cn4c(n3)sc3cc(OCCN5CCOCC5)ccc34)cc2)no1 [AC220, N-(5-tert-butyl-isoxazol-3-yl)-N′-{4-[7-(2-morpholin-4-yl-ethoxy)imidazo[2,1-b][1,3]benzothiazol-2-yl]phenyl}urea]
EC50 [2]: 0.35 nM
EC50 [3]: 0.35 nM
EC50 [4]: 0.35 nM
flank tumor volume ([1]; treatment at 15 days post inoculation): tumor stasis
flank tumor volume ([1]; treatment at 20 days post inoculation): tumor stasis
EC50 [5]: 0.35 nM
sustained complete regressions [6]: no sustained complete regressions

COc1cc([C@@H]2c3cc4c(cc3[C@@H](O[C@@H]3O[C@@H]5CO[C@@H](C)O[C@H]5[C@H](O)[C@H]3O)[C@H]3COC(=O)[C@H]23)OCO4)cc(OC)c1O [etoposide]
EC50 [7]: 34.6 nM

Nc1nc(Cl)nc2c1ncn2[C@H]1C[C@H](O)[C@@H](CO)O1 [cladribine]
EC50 [8]: 16.2 nM

COc1cccc2c1C(=O)c1c(O)c3c(c(O)c1C2=O)C[C@@](O)(C(C)=O)C[C@@H]3O[C@H]1C[C@H](N)[C@H](O)[C@H](C)O1 [daunorubicin]
EC50 [9]: 12.7 nM

Nc1ccn([C@@H]2O[C@H](CO)[C@@H](O)[C@@H]2O)c(=O)n1 [cytarabine]
EC50 [10]: 380 nM
sustained complete regressions [6]: no sustained complete regressions
tumor burden ([6]; sequential, second administration of Ara-C in animals that had 2 weeks of AC220 treatment): capable of reducing tumor burden
